# Data reported in PubChem BioAssay (NCI).
#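 Five concentrations, 48 hours, 96-well plates. GI50 is the concentration that inhibits growth by half. The concentration for full growth arrest is given as TGI.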
# Key:
# Assay in all cases: inhibition of tumour cell growth, NCI panel, 48 h
# HL-60(TB) leukemia = test system: HL-60(TB) leukemia
# NCI/ADR-RES ovarian = test system: NCI/ADR-RES ovarian
# M14 melanoma = test system: M14 melanoma
# SF-295 CNS = test system: SF-295 CNS
# SK-OV-3 ovarian = test system: SK-OV-3 ovarian
# SW-620 colon = test system: SW-620 colon
# MOLT-4 leukemia = test system: MOLT-4 leukemia
# RPMI-8226 leukemia = test system: RPMI-8226 leukemia
# MALME-3M melanoma = test system: MALME-3M melanoma
# HOP-92 NSCLC = test system: HOP-92 NSCLC
SMILES,GI50 (HL-60(TB) leukemia) [µM],TGI (HL-60(TB) leukemia) [µM],GI50 (NCI/ADR-RES ovarian) [µM],TGI (NCI/ADR-RES ovarian) [µM],GI50 (M14 melanoma) [µM],TGI (M14 melanoma) [µM],GI50 (SF-295 CNS) [µM],TGI (SF-295 CNS) [µM],GI50 (SK-OV-3 ovarian) [µM],TGI (SK-OV-3 ovarian) [µM],GI50 (SW-620 colon) [µM],TGI (SW-620 colon) [µM],GI50 (MOLT-4 leukemia) [µM],TGI (MOLT-4 leukemia) [µM],GI50 (RPMI-8226 leukemia) [µM],TGI (RPMI-8226 leukemia) [µM],GI50 (MALME-3M melanoma) [µM],TGI (MALME-3M melanoma) [µM],GI50 (HOP-92 NSCLC) [µM],TGI (HOP-92 NSCLC) [µM]
C=C1C(=O)O[C@H]2[C@H]1CC/C(CNC(=O)Cc1c[nH]c3ccccc13)=C\CC[C@@]1(C)O[C@@H]21,0.314,1.02,19,65.6,0.641,9.8,13,26.6,17.6,31.7,0.352,1.37,1.83,5.75,0.486,3.96,3.42,7.39,2.17,5.25
CN(Cc1cnc2nc(N)nc(N)c2n1)c1ccc(C(=O)NC(CCC(=O)O)C(=O)O)cc1C(F)(F)F (stereo not given),,> 100,,> 100,,> 100,,> 100,,> 100,,> 100,,> 100,,> 100,,> 100,,> 100
C/C(=N\NC(=O)c1sc(=S)n(C)c1N)c1cc2ccccc2o1,26,> 100,11,26,14.7,40.5,14.4,30,20.9,55.6,14.8,28.4,3.51,29.1,12.5,49.4,28.1,56.9,10.3,25.4
Cn1cc(-c2ccc3c(Nc4cccc(NC(=O)Nc5cccc(F)c5)c4)ncnc3c2)cn1,5.9,28,10.8,> 100,2.61,14.9,1.81,8.42,0.61,13.1,1.9,4.45,1.95,14.6,1.53,4.65,1.29,3.79,2.23,9.08
O=C(O)CCNc1ccccc1C(=O)O,,> 100,,> 100,,> 100,,> 100,,> 100,,> 100,,> 100,,> 100,,> 100,,> 100
CC1(C)N=C(N)N=C(N)N1c1cccc(CCCCc2cccc(S(=O)(=O)F)c2)c1,1.95,47.8,> 79.2,> 100,2.92,> 100,2.45,> 100,10.9,> 100,0.342,> 100,3.22,80.7,2.31,35.2,8.47,71.8,5.48,94
Cc1cccc(NC(=O)CCc2ccc(N3C(N)=NC(N)=NC3(C)C)cc2)c1,0.641,> 100,> 100,> 100,> 29.2,> 100,2.56,> 76.3,> 62.9,> 100,1.13,> 100,2.7,> 100,3.17,> 100,> 46.9,> 100,26,> 100
COc1cccc(C2c3cc4c(cc3OC(C)(N3CCCC3)C2C)OCO4)c1OC (stereo not given),,22.8,,76.8,,45.5,,> 100,,69.6,,> 100,,27.4,,> 100,,66.5,,71.2
Cc1c2cc[n+](C)cc2c(C)c2c1sc1ccccc12,,28.4,,> 100,,14.2,,0.783,,14.3,,33.1,,5.57,,5.68,,1.92,,9.75
N#Cc1c(-c2ccccc2)nc(SCC2CO2)nc1N1CCOCC1 (stereo not given),8.88,> 100,11.3,> 95.5,13.4,> 100,2.67,28.2,8.25,57.3,28.8,> 100,10.1,> 74.6,9.41,72.9,2.32,> 68.3,0.284,1.22
